By IC50 is commonly meant the point on the concentration scale where inhibition reaches its midpoint. A higher IC50 goes with weaker potency.

21 molecules from US10336761B2, “TGFβ receptor antagonist” (BRISTOL-MYERS SQUIBB COMPANY, priority 2015, dated 2019) can be followed below.

For the test, the target named is HIS-TGFβR1 T204D (Homo sapiens (Human), UniProt P36897, T204D). Briefly: HTRF probe-displacement assay, HIS-TGFβR1 T204D. The test is classed as binding. Particulars: 1 hour at room temperature. Background: TR-FRET usually uses a lanthanide donor and a delayed reading to cut background.
Chain of HIS-TGFβR1 T204D (P36897 34-503 T204D): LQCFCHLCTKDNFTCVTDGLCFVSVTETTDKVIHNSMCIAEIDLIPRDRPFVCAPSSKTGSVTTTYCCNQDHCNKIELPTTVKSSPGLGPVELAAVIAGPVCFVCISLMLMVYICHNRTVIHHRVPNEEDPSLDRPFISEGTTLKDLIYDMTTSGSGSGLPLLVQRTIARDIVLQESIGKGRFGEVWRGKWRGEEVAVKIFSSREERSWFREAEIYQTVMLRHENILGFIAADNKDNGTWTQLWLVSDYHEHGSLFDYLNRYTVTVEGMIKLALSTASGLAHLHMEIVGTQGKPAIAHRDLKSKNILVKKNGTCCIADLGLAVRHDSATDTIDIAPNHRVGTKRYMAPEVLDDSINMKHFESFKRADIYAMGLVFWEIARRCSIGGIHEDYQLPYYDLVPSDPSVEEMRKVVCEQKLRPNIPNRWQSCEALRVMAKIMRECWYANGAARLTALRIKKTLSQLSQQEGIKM
Turning to `CC(C)(O)CNC(=O)c1cc(Nc2nc(-c3cccc(C(F)(F)F)n3)nn3cccc23)ccn1` [Example 324, N-(2-hydroxy-2-methylpropyl)-4-({2-[6-(trifluoromethyl)pyridin-2-yl]pyrrolo[2,1-f][1,2,4]triazin-4-yl}amino)pyridine-2-carboxamide], the IC50 is 4400 nM.

The molecule `O=C(CN1CC[C@H](O)C1)Nc1cc(Nc2nc(-c3cccc(C(F)(F)F)n3)nn3cccc23)ccn1` [Example 325, 2-[(3S)-3-hydroxypyrrolidin-1-yl]-N-[4-({2-[6-(trifluoromethyl)pyridin-2-yl]pyrrolo[2,1-f][1,2,4]triazin-4-yl}amino)pyridin-2-yl]acetamide] showed an IC50 of 10 nM.

Molecule `O=C(Nc1cc(Nc2nc(-c3cccc(C(F)(F)F)n3)nn3cccc23)ccn1)[C@@H]1CCCN1` [Example 326, (2S)—N-[4-({2-[6-(trifluoromethyl)pyridin-2-yl]pyrrolo[2,1-f][1,2,4]triazin-4-yl}amino)pyridin-2-yl]pyrrolidine-2-carboxamide] registered an IC50 of 88 nM. Against the preceding molecule, the IC50 is about 8.8-fold higher.

The molecule `O=C(CN1CC[C@@H](O)C1)Nc1cc(Nc2nc(-c3cccc(C(F)(F)F)n3)nn3cccc23)ccn1` [Example 327, 2-[(3R)-3-hydroxypyrrolidin-1-yl]-N-[4-({2-[6-(trifluoromethyl)pyridin-2-yl]pyrrolo[2,1-f][1,2,4]triazin-4-yl}amino)pyridin-2-yl]acetamide] had an IC50 of 0.3 nM. This IC50 lies about 290-fold lower than the previous one.

In turn, `CN1CCC(OCc2ccn3nc(-c4ccccn4)nc(Nc4ccncc4F)c23)CC1` [Example 328, 3-fluoro-N-(5-{[(1-methylpiperidin-4-yl)oxy]methyl}-2-(pyridin-2-yl)pyrrolo[2,1-f][1,2,4]triazin-4-yl)pyridin-4-amine] yielded an IC50 of 13 nM. Compared with the last molecule, the IC50 is about 43-fold higher.

As for `O=C(CN1CCCCC1)Nc1cc(Nc2nc(-c3cccc(C(F)(F)F)n3)nn3cccc23)ccn1` [Example 329, 2-(piperidin-1-yl)-N-[4-({2-[6-(trifluoromethyl)pyridin-2-yl]pyrrolo[2,1-f][1,2,4]triazin-4-yl}amino)pyridin-2-yl]acetamide], the IC50 was 1.7 nM. Against the preceding molecule, the IC50 is about 7.6-fold lower.

The molecule `CC(C)(O)CNCC(=O)Nc1cc(Nc2nc(-c3cccc(C(F)(F)F)n3)nn3cccc23)ccn1` [Example 330, 2-[(2-hydroxy-2-methylpropyl)amino]-N-[4-({2-[6-(trifluoromethyl)pyridin-2-yl]pyrrolo[2,1-f][1,2,4]triazin-4-yl}amino)pyridin-2-yl]acetamide] registered an IC50 of 0.6 nM.

Molecule `O=C(CN1CCOCC1)Nc1cc(Nc2nc(-c3cccc(C(F)(F)F)n3)nn3cccc23)ccn1` [Example 331, 2-(morpholin-4-yl)-N-[4-({2-[6-(trifluoromethyl)pyridin-2-yl]pyrrolo[2,1-f][1,2,4]triazin-4-yl}amino)pyridin-2-yl]acetamide] came in with an IC50 of 2.6 nM.

Take `CC(=O)Nc1cc(Nc2nc(-c3ccc(C(F)(F)F)cn3)nn3cccc23)ccn1` [Example 332, N-[4-({2-[5-(trifluoromethyl)pyridin-2-yl]pyrrolo[2,1-f][1,2,4]triazin-4-yl}amino)pyridin-2-yl]acetamide]: the IC50 was 47 nM.

`CC(=O)Nc1cc(Nc2nc(-c3ccc(F)c(C)n3)nn3cccc23)c(F)cn1` [Example 333, N-(5-fluoro-4-{[2-(5-fluoro-6-methylpyridin-2-yl)pyrrolo[2,1-f][1,2,4]triazin-4-yl]amino}pyridin-2-yl)acetamide]: the IC50 came out at 3.6 nM. This IC50 lies about 13-fold lower than the previous one.

For the molecule `O=C(Nc1cc(Nc2nc(-c3cccc(C(F)(F)F)n3)nn3cccc23)ccn1)C1CC1` [Example 335, N-[4-({2-[6-(trifluoromethyl)pyridin-2-yl]pyrrolo[2,1-f][1,2,4]triazin-4-yl}amino)pyridin-2-yl]cyclopropanecarboxamide], the IC50 stood at 0.37 nM.

Consider `COCC(=O)Nc1cc(Nc2nc(-c3cccc(C(F)(F)F)n3)nn3cccc23)ccn1` [Example 336, 2-methoxy-N-[4-({2-[6-(trifluoromethyl)pyridin-2-yl]pyrrolo[2,1-f][1,2,4]triazin-4-yl}amino)pyridin-2-yl]acetamide], for which the IC50 was 1.6 nM.

In turn, `O=C(CCC(F)(F)F)Nc1cc(Nc2nc(-c3cccc(C(F)(F)F)n3)nn3cccc23)ccn1` [Example 337, 4,4,4-trifluoro-N-[4-({2-[6-(trifluoromethyl)pyridin-2-yl]pyrrolo[2,1-f][1,2,4]triazin-4-yl}amino)pyridin-2-yl]butanamide] came in with an IC50 of 3.3 nM.

In turn, `N#CCCC(=O)Nc1cc(Nc2nc(-c3cccc(C(F)(F)F)n3)nn3cccc23)ccn1` [Example 338, 3-cyano-N-[4-({2-[6-(trifluoromethyl)pyridin-2-yl]pyrrolo[2,1-f][1,2,4]triazin-4-yl}amino)pyridin-2-yl]propanamide] displayed an IC50 of 0.79 nM.

In turn, `CC(=O)Nc1cc(Nc2nc(-c3cccc(F)n3)nn3cccc23)c(F)cn1` [Example 339, N-(5-fluoro-4-{[2-(6-fluoropyridin-2-yl)pyrrolo[2,1-f][1,2,4]triazin-4-yl]amino}pyridin-2-yl)acetamide] had an IC50 of 3.3 nM. This IC50 lies about 4.2-fold higher than the previous one.

Turning to `O=C(CCN1CCC(O)CC1)Nc1cc(Nc2nc(-c3cccc(C(F)(F)F)n3)nn3cccc23)ccn1` [Example 340, 3-(4-hydroxypiperidin-1-yl)-N-[4-({2-[6-(trifluoromethyl)pyridin-2-yl]pyrrolo[2,1-f][1,2,4]triazin-4-yl}amino)pyridin-2-yl]propanamide], the concentration for half-maximal inhibition (IC50) was 1.2 nM.

`O=C(CCN1CC(F)(F)C1)Nc1cc(Nc2nc(-c3cccc(C(F)(F)F)n3)nn3cccc23)ccn1` [Example 341, 3-(3,3-difluoroazetidin-1-yl)-N-[4-({2-[6-(trifluoromethyl)pyridin-2-yl]pyrrolo[2,1-f][1,2,4]triazin-4-yl}amino)pyridin-2-yl]propanamide]: the IC50 was determined as 2.7 nM.

The molecule `CC(C)(C)C(=O)Nc1cc(Nc2nc(-c3cccc(C(F)(F)F)n3)nn3cccc23)ccn1` [Example 342, 2,2-dimethyl-N-[4-({2-[6-(trifluoromethyl)pyridin-2-yl]pyrrolo[2,1-f][1,2,4]triazin-4-yl}amino)pyridin-2-yl]propanamide] had an IC50 of 160 nM.

With `COCCC(=O)Nc1cc(Nc2nc(-c3cccc(C(F)(F)F)n3)nn3cccc23)ccn1` [Example 343, 3-methoxy-N-[4-({2-[6-(trifluoromethyl)pyridin-2-yl]pyrrolo[2,1-f][1,2,4]triazin-4-yl}amino)pyridin-2-yl]propanamide], the IC50 worked out at 1.8 nM.

For `O=C(CC(F)(F)F)Nc1cc(Nc2nc(-c3cccc(C(F)(F)F)n3)nn3cccc23)ccn1` [Example 344, 3,3,3-trifluoro-N-[4-({2-[6-(trifluoromethyl)pyridin-2-yl]pyrrolo[2,1-f][1,2,4]triazin-4-yl}amino)pyridin-2-yl]propanamide], the IC50 is 5.1 nM.

The molecule `Cc1nc(-c2nc(Nc3ccnc(NC(=O)C4CC4)c3)c3cccn3n2)ccc1F` [Example 345, N-(4-{[2-(5-fluoro-6-methylpyridin-2-yl)pyrrolo[2,1-f][1,2,4]triazin-4-yl]amino}pyridin-2-yl)cyclopropanecarboxamide] came in with an IC50 of 1.4 nM.
